# Target: T1, JAK3 (Homo sapiens, UniProt P52333)
# T1 construct: made in house; host or cells: T7 phage in BL21-derived E. coli or HEK-293 cells
# T1 sequence (P52333 1-1124): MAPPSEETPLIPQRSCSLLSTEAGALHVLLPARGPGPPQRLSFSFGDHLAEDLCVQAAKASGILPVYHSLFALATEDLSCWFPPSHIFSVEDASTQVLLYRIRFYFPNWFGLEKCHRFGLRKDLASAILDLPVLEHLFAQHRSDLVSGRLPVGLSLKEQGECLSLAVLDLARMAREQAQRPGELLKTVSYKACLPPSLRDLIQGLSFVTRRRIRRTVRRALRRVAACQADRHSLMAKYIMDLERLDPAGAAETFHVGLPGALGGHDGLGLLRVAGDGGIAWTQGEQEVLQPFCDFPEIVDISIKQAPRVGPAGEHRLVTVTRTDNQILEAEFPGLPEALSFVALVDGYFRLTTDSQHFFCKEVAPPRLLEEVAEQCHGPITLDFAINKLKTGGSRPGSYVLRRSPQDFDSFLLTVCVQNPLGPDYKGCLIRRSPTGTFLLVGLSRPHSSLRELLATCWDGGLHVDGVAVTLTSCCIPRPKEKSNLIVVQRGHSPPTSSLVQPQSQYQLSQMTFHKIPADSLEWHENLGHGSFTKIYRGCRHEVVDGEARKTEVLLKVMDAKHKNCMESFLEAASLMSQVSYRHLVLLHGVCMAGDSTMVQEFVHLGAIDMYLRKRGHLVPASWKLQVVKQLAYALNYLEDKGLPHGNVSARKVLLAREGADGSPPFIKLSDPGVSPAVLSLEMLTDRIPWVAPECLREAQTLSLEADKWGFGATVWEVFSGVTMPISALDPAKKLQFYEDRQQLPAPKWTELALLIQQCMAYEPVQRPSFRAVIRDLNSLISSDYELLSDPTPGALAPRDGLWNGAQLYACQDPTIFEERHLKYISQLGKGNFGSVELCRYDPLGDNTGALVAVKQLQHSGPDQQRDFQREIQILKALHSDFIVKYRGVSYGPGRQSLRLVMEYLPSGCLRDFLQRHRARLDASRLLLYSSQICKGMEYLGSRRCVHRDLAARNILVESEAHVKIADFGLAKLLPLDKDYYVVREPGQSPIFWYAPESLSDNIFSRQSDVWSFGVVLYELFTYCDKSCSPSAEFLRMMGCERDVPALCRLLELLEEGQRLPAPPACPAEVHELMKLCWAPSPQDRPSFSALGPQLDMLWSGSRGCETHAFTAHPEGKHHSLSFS
# Experiment: JAK Family Selectivity Assay: JAK3 vs JAK2 binding affinity
# Conditions: Kd JAK3 over Kd JAK2
# Procedure: Provided compounds are evaluated for selectivity by comparing their JAK2 binding affinity (Kd) in the above JAK2 Binding Assay with their binding affinity (Kd) for one or more other kinases. Binding affinity for other kinases is determined as follows: Kinase-tagged T7 phage strains are prepared in an E. coli host derived from the BL21 strain. E. coli are grown to log-phase and infected with T7 phage and incubated with shaking at 32° C. until lysis. The lysates are centrifuged and filtered to remove cell debris. The remaining kinases are produced in HEK-293 cells and subsequently tagged with DNA for qPCR detection. Streptavidin-coated magnetic beads are treated with biotinylated small molecule ligands for 30 minutes at room temperature to generate affinity resins for kinase assays. The liganded beads are blocked with excess biotin and washed with blocking buffer (SeaBlock (Pierce), 1% BSA, 0.05% Tween 20, 1 mM DTT) to remove unbound ligand and to reduce non-specific binding. Binding reactions are assembled by combining kinases, liganded affinity beads, and test compounds in 1× binding buffer (20% SeaBlock, 0.17×PBS, 0.05% Tween 20, 6 mM DTT). Test compounds are prepared as 111× stocks in 100% DMSO. Kds are determined using an 11-point 3-fold compound dilution series with three DMSO control points. All compounds for Kd measurements are distributed by acoustic transfer (non-contact dispensing) in 100% DMSO. The compounds are then diluted directly into the assays such that the final concentration of DMSO is 0.9%. All reactions are performed in polypropylene 384-well plate. Each has a final volume of 0.02 ml. The assay plates are incubated at room temperature with shaking for 1 hour and the affinity beads are washed with wash buffer (1×PBS, 0.05% Tween 20). The beads are then re-suspended in elution buffer (1× PBS, 0.05% Tween 20, 0.5 μM non-biotinylated affinity ligand) and incubated at room temperature with shaking for 30 minutes. The kinase concentration in the eluates is measured by qPCR. […] In some embodiments, provided compounds may be JAK2-selective over one or more of the following kinases: JAK1, JAK3, and Tyk2.
row,JAK3/JAK2 Kd/Kd ratio,SMILES
1,A (Kd/Kd ratio ≥1000),"Cn1cc(C(F)(F)F)cc(Nc2nc3ncc(Oc4ccnc(NC(=O)N5CCC5)c4)c(C#N)c3n2C)c1=O [Example I-7, N-(4-((7-cyano-1-methyl-2-((1-methyl-2-oxo-5-(trifluoromethyl)-1,2-dihydropyridin-3-yl)amino)-1H-imidazo[4,5-b]pyridin-6-yl)oxy)pyridin-2-yl)azetidine-1-carboxamide]"
2,A (Kd/Kd ratio ≥1000),"COCC(=O)Nc1cc(Oc2cnc3nc(Nc4cc(C(F)(F)F)cn(C)c4=O)n(C)c3c2Cl)ccn1 [Example I-75, N-(4-((7-chloro-1-methyl-2-((1-methyl-2-oxo-5-(trifluoromethyl)-1,2-dihydropyridin-3-yl)amino)-1H-imidazo[4,5-b]pyridin-6-yl)oxy)pyridin-2-yl)-2-methoxyacetamide]"
3,A (Kd/Kd ratio ≥1000),"CC(=O)Nc1cc(Oc2cnc3nc(Nc4cc(C(F)(F)F)cn(C)c4=O)n(C)c3c2Cl)c(F)cn1 [Example I-88, N-(4-((7-chloro-1-methyl-2-((1-methyl-2-oxo-5-(trifluoromethyl)-1,2-dihydropyridin-3-yl)amino)-1H-imidazo[4,5-b]pyridin-6-yl)oxy)-5-fluoropyridin-2-yl)acetamide]"
4,A (Kd/Kd ratio ≥1000),"CO[C@H]1CCN(C(=O)Nc2cc(Oc3cnc4nc(Nc5cc(C(F)(F)F)cn(C)c5=O)n(C)c4c3C#N)ccn2)C1 [Example I-14, (S)-N-(4-((7-cyano-1-methyl-2-((1-methyl-2-oxo-5-(trifluoromethyl)-1,2-dihydropyridin-3-yl)amino)-1H-imidazo[4,5-b]pyridin-6-yl)oxy)pyridin-2-yl)-3-methoxypyrrolidine-1-carboxamide]"
5,A (Kd/Kd ratio ≥1000),"CCN1CCN(Cc2ccc(Nc3nc4ccc(Oc5ccnc(NC(C)=O)c5)cc4n3C)cc2C(F)(F)F)CC1 [Example R-1, reference compound]"
6,A (Kd/Kd ratio ≥1000),"Cn1cc(C(F)(F)F)cc(Nc2nc3ncc(Oc4ccnc(NC(=O)O[C@@H]5CCOC5)c4)c(C#N)c3n2C)c1=O [Example I-18, (R)-Tetrahydrofuran-3-yl(4-((7-cyano-1-methyl-2-((1-methyl-2-oxo-5-(trifluoromethyl)-1,2-dihydropyridin-3-yl)amino)-1H-imidazo[4,5-b]pyridin-6-yl)oxy)pyridin-2-yl)carbamate]"
7,A (Kd/Kd ratio ≥1000),"Cn1cc(C(F)(F)F)cc(Nc2nc3ncc(Oc4ccnc(NC(=O)OCCN5CCOCC5)c4)c(C#N)c3n2C)c1=O [Example I-15, 2-Morpholinoethyl(4-((7-cyano-1-methyl-2-((1-methyl-2-oxo-5-(trifluoromethyl)-1,2-dihydropyridin-3-yl)amino)-1H-imidazo[4,5-b]pyridin-6-yl)oxy)pyridin-2-yl)carbamate]"
8,B (Kd/Kd ratio <1000 and ≥300),"Cn1c(Nc2cc3n(n2)CCC32CCC2)nc2ncc(Oc3ccnc(NC(=O)C4CC4)c3)c(C#N)c21 [Example I-122, N-(4-((7-cyano-2-((5′,6′-dihydrospiro[cyclobutane-1,4′-pyrrolo[1,2-b]pyrazol]-2′-yl)amino)-1-methyl-1H-imidazo[4,5-b]pyridin-6-yl)oxy)pyridin-2-yl)cyclopropanecarboxamide]"

row,SMILES,JAK3/JAK2 Kd/Kd ratio
1,"COC1CN(C(=O)Nc2cc(Oc3cnc4nc(Nc5cc6n(n5)CCC65CCC5)n(C)c4c3C#N)ccn2)C1 [Example I-61, N-(4-((7-cyano-2-((5′,6′-dihydrospiro[cyclobutane-1,4′-pyrrolo[1,2-b]pyrazol]-2′-yl)amino)-1-methyl-1H-imidazo[4,5-b]pyridin-6-yl)oxy)pyridin-2-yl)-3-methoxyazetidine carboxamide]",A (Kd/Kd ratio ≥1000)
2,"COCC(=O)Nc1cc(Oc2cnc3nc(Nc4cc(C(F)(F)F)cn(C)c4=O)n(C)c3c2C#N)ccn1 [Example I-79, N-(4-((7-cyano-1-methyl-2-((1-methyl-2-oxo-5-(trifluoromethyl)-1,2-dihydropyridin-3-yl)amino)-1H-imidazo[4,5-b]pyridin-6-yl)oxy)pyridin-2-yl)-2-methoxyacetamide]",A (Kd/Kd ratio ≥1000)
3,"CO[C@@H]1CCN(C(=O)Nc2cc(Oc3cnc4nc(Nc5cc6n(n5)CCC65CCC5)n(C)c4c3C#N)ccn2)C1 [Example I-60, (R)-N-(4-((7-cyano-2-((5′,6′-dihydrospiro[cyclobutane-1,4′-pyrrolo[1,2-b]pyrazol]-2′-yl)amino)-1-methyl-1H-imidazo[4,5-b]pyridin-6-yl)oxy)pyridin-2-yl)-3-methoxypyrrolidine-1-carboxamide]",B (Kd/Kd ratio <1000 and ≥300)
4,"COCCOC(=O)Nc1cc(Oc2cnc3nc(Nc4cc5n(n4)CCC54CCC4)n(C)c3c2C#N)ccn1 [Example I-62, 2-methoxyethyl(4-((7-cyano-2-((5′,6′-dihydrospiro[cyclobutane-1,4′-pyrrolo[1,2-b]pyrazol]-2′-yl)amino)-1-methyl-1H-imidazo[4,5-b]pyridin-6-yl)oxy)pyridin-2-yl)carbamate]",A (Kd/Kd ratio ≥1000)
5,"CN(C)C(=O)Nc1cc(Oc2cnc3nc(Nc4cc(C(F)(F)F)cn(C)c4=O)n(C)c3c2C#N)ccn1 [Example I-4, 3-(4-((7-cyano-1-methyl-2-((1-methyl-2-oxo-5-(trifluoromethyl)-1,2-dihydropyridin-3-yl)amino)-1H-imidazo[4,5-b]pyridin-6-yl)oxy)pyridin-2-yl)-1,1-dimethylurea]",A (Kd/Kd ratio ≥1000)
6,"COC(=O)Nc1cc(Oc2cnc3nc(Nc4cc(C(F)(F)F)cn(C)c4=O)n(C)c3c2C#N)ccn1 [Example I-3, Methyl (4-((7-cyano-1-methyl-2-((1-methyl-2-oxo-5-(trifluoromethyl)-1,2-dihydropyridin-3-yl)amino)-1H-imidazo[4,5-b]pyridin-6-yl)oxy)pyridin-2-yl)carbamate]",A (Kd/Kd ratio ≥1000)

# Source: US11970494B2, “6-heteroaryloxy benzimidazoles and azabenzimidazoles as JAK2 inhibitors” (Ajax Therapeutics, Inc., priority 2021, dated 2024)
